Test results from the NIST ThermoML archive (doi:10.1016/j.jct.2018.02.022).
Numbers after ± are expanded uncertainties.

Test: xn = mol fraction of the nth substance listed
Settings: 92.3 kPa, Liquid; for viscosity: Concentric cylinders viscometry; for speed of sound: Frequency=3 MHz, Single path-length method; for mass density: Vibrating tube method

OCCO [1,2-ethanediol] + O
Settings | mass density, 303.15 K [kg/m3] | mass density, 308.15 K [kg/m3] | speed of sound, 303.15 K [m/s] | speed of sound, 308.15 K [m/s] | viscosity, 303.15 K [mPa·s] | viscosity, 308.15 K [mPa·s]
x1 = 0.0101 | 1000.04 ± 3.2 | 998.43 ± 3.2 | 1523.1 ± 1.8 | 1532.7 ± 1.8 | – | –
x1 = 0.0201 | 1004 ± 3.2 | 1002.32 ± 3.2 | 1536.3 ± 1.8 | 1544.8 ± 1.8 | – | –
x1 = 0.0302 | 1007.88 ± 3.2 | 1006.13 ± 3.2 | 1549.1 ± 1.8 | 1556.6 ± 1.8 | – | –
x1 = 0.0407 | 1011.76 ± 3.2 | 1009.9 ± 3.2 | 1561.7 ± 1.8 | 1568.1 ± 1.8 | – | –
x1 = 0.0494 | 1014.98 ± 3.2 | 1013.02 ± 3.2 | – | – | 1.164 ± 0.16 | 1.059 ± 0.15
x1 = 0.0506 | 1015.24 ± 3.2 | 1013.36 ± 3.2 | 1573 ± 1.8 | 1578.4 ± 1.8 | – | –
x1 = 0.0605 | 1018.73 ± 3.2 | 1016.68 ± 3.2 | 1583.6 ± 1.8 | 1588 ± 1.8 | – | –
x1 = 0.0704 | 1022.12 ± 3.2 | 1019.92 ± 3.2 | 1594 ± 1.8 | 1597.4 ± 1.8 | – | –
x1 = 0.0801 | 1025.1 ± 3.2 | 1022.9 ± 3.2 | 1602.9 ± 1.8 | 1605.7 ± 1.8 | – | –
x1 = 0.0905 | 1028.31 ± 3.2 | 1026.05 ± 3.2 | 1612.5 ± 1.8 | 1614.3 ± 1.8 | – | –
x1 = 0.0986 | 1030.68 ± 3.2 | 1028.37 ± 3.2 | – | – | 1.555 ± 0.22 | 1.38 ± 0.19
x1 = 0.0997 | 1031.05 ± 3.2 | 1028.71 ± 3.2 | 1620.2 ± 1.8 | 1621.3 ± 1.8 | – | –
x1 = 0.1483 | 1043.73 ± 3.3 | 1041.14 ± 3.3 | – | – | 1.99 ± 0.28 | 1.741 ± 0.24
x1 = 0.1493 | 1044.06 ± 3.3 | 1041.45 ± 3.3 | 1654.1 ± 1.8 | 1652 ± 1.8 | – | –
x1 = 0.1985 | 1054.47 ± 3.3 | 1051.74 ± 3.3 | 1676.9 ± 1.8 | 1672.2 ± 1.8 | – | –
x1 = 0.2072 | 1056.16 ± 3.3 | 1053.32 ± 3.3 | – | – | 2.564 ± 0.36 | 2.226 ± 0.31
x1 = 0.2466 | 1063 ± 3.3 | 1060.02 ± 3.3 | – | – | 2.965 ± 0.42 | 2.572 ± 0.36
x1 = 0.2487 | 1063.38 ± 3.3 | 1060.37 ± 3.3 | 1690.5 ± 1.8 | 1684.2 ± 1.8 | – | –
x1 = 0.298 | 1070.45 ± 3.3 | 1067.33 ± 3.3 | – | – | 3.541 ± 0.5 | 3.066 ± 0.43
x1 = 0.2998 | 1070.7 ± 3.3 | 1067.57 ± 3.3 | 1698.3 ± 1.8 | 1690.6 ± 1.8 | – | –
x1 = 0.3318 | 1074.59 ± 3.3 | 1071.38 ± 3.3 | 1700.5 ± 1.8 | 1692.2 ± 1.8 | – | –
x1 = 0.3399 | 1075.52 ± 3.3 | 1072.31 ± 3.3 | – | – | 4.029 ± 0.56 | 3.48 ± 0.49
x1 = 0.3921 | 1080.8 ± 3.3 | 1077.51 ± 3.3 | – | – | 4.67 ± 0.65 | 4.026 ± 0.56
x1 = 0.3981 | 1081.34 ± 3.3 | 1077.99 ± 3.3 | 1701.1 ± 1.8 | 1691.7 ± 1.8 | – | –
x1 = 0.4446 | 1085.21 ± 3.3 | 1081.86 ± 3.3 | – | – | 5.349 ± 0.75 | 4.605 ± 0.64
x1 = 0.4521 | 1085.69 ± 3.3 | 1082.37 ± 3.3 | 1698.9 ± 1.8 | 1688.8 ± 1.8 | – | –
x1 = 0.4934 | – | 1085.26 ± 3.3 | 1695.7 ± 1.8 | 1685.2 ± 1.8 | – | –
x1 = 0.5007 | – | 1085.73 ± 3.3 | – | – | 6.109 ± 0.86 | 5.245 ± 0.73
x1 = 0.5485 | 1091.97 ± 3.3 | – | – | – | 6.771 ± 0.95 | 5.811 ± 0.81
x1 = 0.552 | 1092.19 ± 3.3 | – | 1690.2 ± 1.8 | 1679.4 ± 1.8 | – | –
x1 = 0.5846 | 1093.94 ± 3.3 | 1090.48 ± 3.3 | 1686.7 ± 1.8 | 1675.8 ± 1.8 | – | –
x1 = 0.6004 | 1094.63 ± 3.3 | 1091.17 ± 3.3 | – | – | 7.519 ± 1.1 | 6.445 ± 0.9
x1 = 0.6451 | 1096.63 ± 3.3 | 1093.16 ± 3.3 | – | – | 8.173 ± 1.1 | 7.002 ± 0.98
x1 = 0.6481 | 1096.77 ± 3.3 | 1093.29 ± 3.3 | 1679.9 ± 1.8 | 1668.8 ± 1.8 | – | –
x1 = 0.6773 | 1097.96 ± 3.3 | 1094.48 ± 3.3 | 1676.6 ± 1.8 | 1665.3 ± 1.8 | – | –
x1 = 0.7012 | 1098.83 ± 3.3 | 1095.34 ± 3.3 | – | – | 9.085 ± 1.3 | 7.725 ± 1.1
x1 = 0.7421 | 1100.21 ± 3.3 | 1096.71 ± 3.3 | 1669.4 ± 1.8 | 1658 ± 1.8 | – | –
x1 = 0.7435 | 1100.29 ± 3.3 | 1096.79 ± 3.3 | – | – | 9.808 ± 1.4 | 8.27 ± 1.2
x1 = 0.7811 | 1101.44 ± 3.3 | 1097.94 ± 3.3 | 1665 ± 1.8 | 1653.6 ± 1.8 | – | –
x1 = 0.7907 | 1101.74 ± 3.3 | 1098.23 ± 3.3 | – | – | 10.55 ± 1.5 | 8.857 ± 1.2
x1 = 0.8497 | – | 1099.81 ± 3.3 | 1657.7 ± 1.8 | 1646.1 ± 1.8 | – | –
x1 = 0.8505 | – | 1099.84 ± 3.3 | – | – | 11.54 ± 1.6 | 9.617 ± 1.3
x1 = 0.89 | 1104.3 ± 3.3 | 1100.78 ± 3.3 | – | – | 12.15 ± 1.7 | 10.11 ± 1.4
x1 = 0.9002 | 1104.55 ± 3.3 | 1101.03 ± 3.3 | 1652.6 ± 1.8 | 1640.9 ± 1.8 | – | –
x1 = 0.9059 | 1104.67 ± 3.3 | 1101.15 ± 3.3 | 1652.1 ± 1.8 | 1640.4 ± 1.8 | – | –
x1 = 0.912 | 1104.78 ± 3.3 | 1101.26 ± 3.3 | 1651.6 ± 1.8 | 1639.9 ± 1.8 | – | –
x1 = 0.9299 | 1105.19 ± 3.3 | 1101.66 ± 3.3 | 1649.8 ± 1.8 | 1638.1 ± 1.8 | – | –
x1 = 0.9413 | 1105.43 ± 3.3 | 1101.91 ± 3.3 | 1648.7 ± 1.8 | 1637 ± 1.8 | – | –
x1 = 0.9495 | 1105.62 ± 3.3 | 1102.1 ± 3.3 | 1647.8 ± 1.8 | 1636.1 ± 1.8 | – | –
x1 = 0.9532 | 1105.68 ± 3.3 | 1102.16 ± 3.3 | – | – | 13.12 ± 1.8 | 10.89 ± 1.5
x1 = 0.9546 | 1105.72 ± 3.3 | 1102.2 ± 3.3 | 1647.5 ± 1.8 | 1635.8 ± 1.8 | – | –
x1 = 0.9681 | 1105.98 ± 3.3 | 1102.46 ± 3.3 | 1646.3 ± 1.8 | 1634.6 ± 1.8 | – | –
x1 = 0.9789 | 1106.18 ± 3.3 | – | 1645.4 ± 1.8 | 1633.6 ± 1.8 | – | –
x1 = 0.9893 | 1106.39 ± 3.2 | – | 1644.3 ± 1.8 | 1632.5 ± 1.8 | – | –
x1 = 1 | 1106.71 ± 3 | – | 1642.9 ± 1.8 | 1631.2 ± 1.8 | 13.87 ± 1.9 | 11.48 ± 1.6
